Data on 34 compounds can be found in US20240327393A1 (SIRONAX LTD., priority 2021, published 2024).

Where two headings read alike, the source gives them in different places.

In this assay the test system is HT-1080 (ATCC, CCL-121) cells. Description: HT-1080 cell viability assay with ferroptosis inducer RSL3 (Cell Titer-Glo). The class given is cell-based. The settings on record: HT-1080 cells treated with RSL3, 3-fold, 10-point dilution, 1.1 μM highest concentration, read-out: EC50 (nM), ferroptosis inhibitory activity. The procedure: Example 2. Determination of EC50 Values in HT-1080 Cell Viability Assay
HT-1080 (ATCC, CCL-121) cells (6000 in 100 μl) were seeded in 96-well plates (Corning) and cultured in a 37° C. incubator with a humidified atmosphere of 5% CO2 for overnight. Cells were then treated with ferroptosis inducer RSL3 (TargetMol) and a 3-fold, 10-point serial dilution series of compounds with 1.1 μM as the highest concentration, […]. Cell viability was assessed using the Cell Titer-Glo Kit (Promega). The luminescence intensity was measured with a microplate reader (Envision, PerkinElmer), and cell viability was calculated by normalizing the data to untreated controls. The EC50 values of the compounds (e.g., Compounds 1-659) were calculated in GraphPad Prism (GraphPad Software, Inc., San Diego, CA, USA). The curves were fitted using a non-linear regression model with a sigmoidal dose response.
A general note: ATP-based viability assays read luminescence as a measure of living cells.

As usually defined, the EC50 is the concentration that produces a half-maximal response.

`CC1CCN(c2ccc(Nc3ccc4c(c3)oc(=O)n4C)cc2)CC1` [Compound 273, 3-methyl-6-((4-(4-methylpiperidin-1-yl)phenyl)amino) benzo[d]oxazol-2(3H)-one]: the concentration giving a half-maximal response (EC50) (Homo sapiens, Table 2) lay within 0.1 to 100 nM.

For the compound `CN1Cc2ccc(Nc3ccc(N4CCC(C(F)(F)F)CC4)c(F)c3)cc2C1=O` [Compound 169, 6-((3-fluoro-4-(4-(trifluoromethyl)piperidin-1-yl)phenyl)amino)-2-methylisoindolin-1-one], for the setting “Homo sapiens, Table 2”, the EC50 was in the range of 0.1 to 100 nM.

Take `Cn1cnc2cc(Nc3ccc4c(c3)n(C)c(=O)n4C)ccc21` [Compound 331, 1,3-dimethyl-5-((1-methyl-1H-benzo[d]imidazol-5-yl)amino)-1,3-dihydro-2H-benzo[d]imidazol-2-one]: the EC50 (Homo sapiens, Table 2) is 100 to 1000 nM.

Regarding `Cc1cc(N2CC(C)OC(C)C2)ccc1Nc1cnc2c(c1)OCC(=O)N2C` (stereo not shown) [Compound 457, 7-((4-(2,6-dimethylmorpholino)-2-methylphenyl)amino)-4-methyl-2H-pyrido[3,2-b][1,4]oxazin-3(4H)-one], the EC50 (Homo sapiens, Table 3) is 0.1 to 100 nM.

Turning to `O=C1c2ccc(Nc3ccc(N4CCC(C(F)(F)F)CC4)cc3)cc2CN1CC=C(F)F` [Compound 215, 2-(3,3-difluoroallyl)-5-((4-(4-(trifluoromethyl)piperidin-1-yl)phenyl)amino)isoindolin-1-one], the EC50 (Homo sapiens, Table 2) lay in the range of 0.1 to 100 nM.

Take `CC1CCN(c2ccc(Nc3ccc4c(c3)C(C)(C)CN4C)cc2)CC1` [Compound 311, 1,3,3-trimethyl-N-(4-(4-methylpiperidin-1-yl)phenyl)indolin-5-amine]: the EC50 (Homo sapiens, Table 2) is 0.1 to 100 nM.

As for `CC1CN(c2ccc(Nc3cnc4c(c3)OCC(=O)N4C)cc2)CC(C)O1` (stereo not shown) [Compound 76, 7-((4-(2,6-dimethylmorpholino)phenyl)amino)-4-methyl-2H-pyrido[3,2-b][1,4]oxazin-3(4H)-one], the EC50 (Homo sapiens, Table 2) was in the range of 0.1 to 100 nM.

With `Cc1cc(Nc2ccc3c(c2)OCC(=O)N3)ccc1N1CC(C)OC(C)C1` (stereo not shown) [Compound 145, 7-((4-(2,6-dimethylmorpholino)-3-methylphenyl)amino)-2H-benzo[b][1,4]oxazin-3(4H)-one], the EC50 (Table 2) was 0.1 to 100 nM.

Take `Cn1c(=O)n(C)c2cc(Nc3ccc(N4CCC(C)(O)CC4)cc3)ccc21` [Compound 341, 5-((4-(4-hydroxy-4-methylpiperidin-1-yl)phenyl)amino)-1,3-dimethyl-1,3-dihydro-2H-benzo[d]imidazol-2-one]: the EC50 (Homo sapiens, Table 2) was in the range of 0.1 to 100 nM.

In the case of `Cc1cc(N2CCC(C(F)(F)F)CC2)ccc1Nc1cc(C#N)c2c(c1)OCC(=O)N2` [Compound 468, 7-((2-methyl-4-(4-(trifluoromethyl)piperidin-1-yl)phenyl)amino)-3-oxo-3,4-dihydro-2H-benzo[b][1,4]oxazine-5-carbonitrile], the EC50 (Homo sapiens, Table 3) fell in the range of 0.1 to 100 nM.

Turning to `COCCOCCN1Cc2cc(Nc3ccc(N4CCC(C(F)(F)F)CC4)cc3)ccc2C1=O` [Compound 198, 2-(2-(2-methoxyethoxy)ethyl)-5-((4-(4-(trifluoromethyl)piperidin-1-yl)phenyl)amino)isoindolin-1-one], the EC50 (Homo sapiens, Table 2) is 0.1 to 100 nM.

Take `Cc1cc(N2CCC(C(F)(F)F)CC2)ccc1Nc1ccc2c(c1)OC(C)C(=O)N2` (stereo not shown) [Compound 482, 2-methyl-7-((2-methyl-4-(4-(trifluoromethyl)piperidin-1-yl)phenyl)amino)-2H-benzo[b][1,4]oxazin-3(4H)-one]: the EC50 (Homo sapiens, Table 3) fell in the range of 0.1 to 100 nM.

Take `CCN(CC)c1ccc(Nc2ccc3c(c2)OCC(=O)N3C)cc1` [Compound 22, 7-((4-(diethylamino)phenyl)amino)-4-methyl-2H-benzo[b][1,4]oxazin-3(4H)-one]: the EC50 (Homo sapiens, Table 2) fell in the range of 0.1 to 100 nM.

Turning to `CC1CN(c2ccc(Nc3ccc4c(c3)OCC(=O)N4CCN(C)C)cc2)CC(C)O1` (stereo not shown) [Compound 80, 4-(2-(dimethylamino)ethyl)-7-((4-(2,6-dimethylmorpholino)phenyl)amino)-2H-benzo[b][1,4]oxazin-3(4H)-one], under “Homo sapiens, Table 2”, the EC50 was 0.1 to 100 nM.

Consider `CC1CN(c2ccc(Nc3ccc4c(c3)OCC(=O)N4CCO)cc2)CC(C)O1` (stereo not shown) [Compound 84, 7-((4-(2,6-dimethylmorpholino)phenyl)amino)-4-(2-hydroxyethyl)-2H-benzo[b][1,4]oxazin-3(4H)-one], for which the EC50 (Homo sapiens, Table 2) lay within 0.1 to 100 nM.

For the compound `CC(C)(C)c1ccc(Nc2ccc3oc(=O)ccc3c2)cc1` [Compound 120, 6-((4-(tert-butyl)phenyl)amino)-2H-chromen-2-one], for the setting “Homo sapiens, Table 2”, the 50% effective concentration (EC50) was 0.1 to 100 nM.

As to `CCC1Oc2cc(Nc3ccc(N4CCC(C(F)(F)F)CC4)cc3C)ccc2NC1=O` (stereo not shown) [Compound 483, 2-ethyl-7-((2-methyl-4-(4-(trifluoromethyl)piperidin-1-yl)phenyl)amino)-2H-benzo[b][1,4]oxazin-3(4H)-one], the EC50 (Homo sapiens, Table 3) fell in the range of 0.1 to 100 nM.

Take `Cc1cc(N2C[C@@H](C)O[C@@H](C)C2)ccc1Nc1ccc2c(c1)CNC(=O)N2` [Compound 494, 6-((4-((2R,6S)-2,6-dimethylmorpholino)-2-methylphenyl)amino)-3,4-dihydroquinazolin-2(1H)-one]: the 50% effective concentration (EC50) (Homo sapiens, Table 3) fell in the range of 0.1 to 100 nM.

With `COC1(C(F)(F)F)CCN(c2c(F)cc(Nc3ccc4c(c3)OCC(=O)N4C)cc2F)CC1` [Compound 161], the EC50 (Homo sapiens, Table 2) lay in the range of 0.1 to 100 nM.

Consider `Cn1c(=O)n(C)c2cc(Nc3ccc(N4CCC(F)(F)CC4)cc3)ccc21` [Compound 297, 5-((4-(4,4-difluoropiperidin-1-yl)phenyl)amino)-1,3-dimethyl-1,3-dihydro-2H-benzo[d]imidazol-2-one], for which, under “Homo sapiens, Table 2”, the concentration for a half-maximal effect (EC50) was 0.1 to 100 nM.

`NC(=O)CN1C(=O)COc2cc(Nc3ccc(N4CCC(C(F)(F)F)CC4)cc3)ccc21` [Compound 14, 2-(3-oxo-7-((4-(4-(trifluoromethyl)piperidin-1-yl)phenyl)amino)-2,3-dihydro-4H-benzo[b][1,4]oxazin-4-yl)acetamide]: the EC50 (Homo sapiens, Table 2) lay within 0.1 to 100 nM.

Take `O=C1CCc2cc(Nc3ccc(N4CCC(C(F)(F)F)CC4)cc3)ccc2N1` [Compound 158, 6-((4-(4-(trifluoromethyl)piperidin-1-yl)phenyl)amino)-3,4-dihydroquinolin-2(1H)-one]: the EC50 (Homo sapiens, Table 2) is 0.1 to 100 nM.

For `CN(C)CCCN1Cc2cc(Nc3ccc(N4CCC(C(F)(F)F)CC4)cc3)ccc2C1=O` [Compound 200, 2-(3-(dimethylamino)propyl)-5-((4-(4-(trifluoromethyl)piperidin-1-yl)phenyl)amino)isoindolin-1-one], the EC50 (Homo sapiens, Table 2) is 0.1 to 100 nM.

Consider `O=C1COc2cc(Nc3ccc(N4CCCCC4)cc3)ccc2N1` [Compound 517, 7-(4-(piperidin-1-yl)phenylamino)-2H-benzo[b][1,4]oxazin-3(4H)-one], for which the EC50 (Homo sapiens, Table 3) lay within 0.1 to 100 nM.

`NC(=O)CCN1C(=O)COc2cc(Nc3ccc(N4CCC(C(F)(F)F)CC4)cc3)ccc21` [Compound 15, 3-(3-oxo-7-((4-(4-(trifluoromethyl)piperidin-1-yl)phenyl)amino)-2,3-dihydro-4H-benzo[b][1,4]oxazin-4-yl)propanamide]: the EC50 (Homo sapiens, Table 2) was 0.1 to 100 nM.

`O=C1COc2cc(Nc3ccc(N4CCC(C(F)(F)F)CC4)cc3)cnc2N1` [Compound 450, 7-((4-(4-(trifluoromethyl)piperidin-1-yl)phenyl)amino)-2H-pyrido[3,2-b][1,4]oxazin-3(4H)-one]: the EC50 (Homo sapiens, Table 3) fell in the range of 0.1 to 100 nM.

Turning to `CC1CN(c2ccc(Nc3cc(F)c4c(c3)OCC(=O)N4C)cc2)CC(C)O1` (stereo not shown) [Compound 87, 7-((4-(2,6-dimethylmorpholino)phenyl)amino)-5-fluoro-4-methyl-2H-benzo[b][1,4]oxazin-3(4H)-one], the EC50 (Homo sapiens, Table 2) fell in the range of 0.1 to 100 nM.

For the compound `O=C1COc2cc(Nc3ccc(N4CCC(O)(C(F)(F)F)CC4)cc3)ccc2N1` [Compound 510, 7-((4-(4-hydroxy-4-(trifluoromethyl)piperidin-1-yl)phenyl)amino)-2H-benzo[b][1,4]oxazin-3(4H)-one], the EC50 (Homo sapiens, Table 3) lay in the range of 0.1 to 100 nM.

`FC(F)(F)C1CCN(c2ccc(Nc3ccc4ccoc4c3)cc2)CC1` [Compound 351, N-(4-(4-(trifluoromethyl)piperidin-1-yl)phenyl)benzofuran-6-amine]: for the setting “Homo sapiens, Table 2”, the EC50 lay in the range of 0.1 to 100 nM.

Consider `COC1(C(F)(F)F)CN(c2ccc(Nc3ccc4c(c3)OCC(=O)N4)c(C)c2)C1` [Compound 633, 7-({4-[3-methoxy-3-(trifluoromethyl)azetidin-1-yl]-2-methylphenyl}amino)-2,4-dihydro-1,4-benzoxazin-3-one], for which, under “Homo sapiens, Table 3”, the EC50 was 0.1 to 100 nM.

For the compound `Cc1c(Nc2ccc3c(c2)n(C)c(=O)n3C)ccc(N2CCC(C)CC2)c1F` [Compound 275, 5-((3-fluoro-2-methyl-4-(4-methylpiperidin-1-yl)phenyl)amino)-1,3-dimethyl-1,3-dihydro-2H-benzo[d]imidazol-2-one], where the note is “Homo sapiens, Table 2”, the EC50 fell in the range of 0.1 to 100 nM.

In the case of `Cc1cc(NC(C)(C)C)ccc1Nc1ccc2c(c1)OCC(=O)N2` [Compound 634, 7-((4-(tert-butylamino)-2-methylphenyl)amino)-2H-benzo[b][1,4]oxazin-3(4H)-one], for the setting “Homo sapiens, Table 3”, the EC50 fell in the range of 0.1 to 100 nM.

Take `O=C1c2ccc(Nc3ccc(N4CCCCC4)cc3)cc2CN1CC1CC1` [Compound 185, 2-(cyclopropylmethyl)-5-((4-(piperidin-1-yl)phenyl)amino)isoindolin-1-one]: where the note is “Homo sapiens, Table 2”, the EC50 is 0.1 to 100 nM.

Regarding `CN(C)CCn1c(=O)n(C)c2cc(Nc3ccc(C4CCC(C)(C)CC4)cc3)ccc21` [Compound 405, 1-(2-(dimethylamino)ethyl)-5-((4-(4,4-dimethylcyclohexyl)phenyl)amino)-3-methyl-1,3-dihydro-2H-benzo[d]imidazol-2-one], under “Homo sapiens, Table 2”, the EC50 fell in the range of 0.1 to 100 nM.
